Several values for one entry are separate records, joined by “and”; a condition that tells them apart may be missing. Equal values may be shown once. Read-outs that look alike come from different tables or passages of the source. Blank lines part the entries; values can stand above or below the compound they belong to.
What was measured:
hA1R:Gi2 = hA1R:Gi2 (Homo sapiens, UniProt P30542); assay: cAMP inhibition in PTX-treated CHO-K1-hA1R cells with PTX-insensitive Gi2; format: cell-based; details: inhibition of forskolin-stimulated cAMP
Sequence of hA1R:Gi2 (P30542 whole entry): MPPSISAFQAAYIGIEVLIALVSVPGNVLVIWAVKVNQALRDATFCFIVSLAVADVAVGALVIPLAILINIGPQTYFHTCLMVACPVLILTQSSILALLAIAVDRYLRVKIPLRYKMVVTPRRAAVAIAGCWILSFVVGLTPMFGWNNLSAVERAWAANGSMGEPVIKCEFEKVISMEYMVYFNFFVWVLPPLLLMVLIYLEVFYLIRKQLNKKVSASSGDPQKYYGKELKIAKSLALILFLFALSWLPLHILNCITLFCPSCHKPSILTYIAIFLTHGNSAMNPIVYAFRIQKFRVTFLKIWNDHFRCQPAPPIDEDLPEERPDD
Method: (§1) Cells were then incubated for 24 h before addition of 100 ng/ml PTX, to inhibit activity of endogenous Gαi/o, and then incubated for a further 16-18 h. Transfected cells were then assayed as per cAMP inhibition experiments, but co-stimulated with agonist and 100 nM forskolin.

[1] = molecular target: β-arrestin1 recruitment to hA1R (Homo sapiens, UniProt P30542); assay: BRET β-arrestin1 recruitment to A1R, HEK 293T; format: cell-based
Sequence of β-arrestin1 recruitment to hA1R (P30542 whole entry): as above

[2] = molecular target: β-arrestin2 recruitment to hA1R (Homo sapiens, UniProt P30542); assay: BRET β-arrestin2 recruitment to A1R, HEK 293T; format: cell-based
Sequence of β-arrestin2 recruitment to hA1R (P30542 whole entry): as above

frog heart = assay: Isolated frog heart preparation, heart rate; details: CPA 300 nM
Method: Young adult male Xenopus leavis frogs were obtained from Portsmouth Xenopus Resource Centre. […] The animals were dissected to reveal the heart and the pericardium was carefully removed. Heart contractions were measured with a force transducer (AD instruments). Heart rate was acquired via a PowerLab 26 T (AD instruments) controlled by LabChart 7 (AD instruments). The heart was regularly washed with Ringer solution and drugs were applied directly to the heart.

[3] = test system: heart rate and mean arterial blood pressure; assay: Urethane-anaesthetised rat, heart rate and arterial blood pressure
Text: Anaesthesia was induced in adult male Sprague–Dawley rats (230-330 g) with isofluorane (2–4%; Piramal Healthcare). The femoral vein was catheterised for drug delivery. Anaesthesia was maintained with urethane (1.2–1.7 g kg^−1; Sigma) in sterile saline delivered via the femoral vein catheter. […] The trachea was cannulated and the femoral artery catheterised, and both were connected to pressure transducers (Digitimer) to record respiratory airflow and arterial blood pressure, respectively. Blood pressure and airflow signals were amplified using the NeuroLog system (Digitimer) connected to a micro1401 interface and acquired on a computer using Spike2 software (v7.08a; Cambridge Electronic Design). […] Airflow measurements were used to calculate: tidal volume (VT; mL; pressure sensors were calibrated with a 3 mL syringe), and respiratory frequency (f; breaths min^−1; BrPM). Minute ventilation (VE; mL min^−1) was calculated as f × VT.
Cardiovascular and respiratory parameters were allowed to stabilise before experiments began. A1R agonists were administered by intravenous (IV) injection and the changes in HR, MAP, f, VT, and VE were measured. […] All injections were administered IV as a 350 µl·kg^-1 bolus.

rA3R = molecular target: T1, rA3R (Rattus norvegicus, UniProt P28647); assay: NanoBRET competition binding with AV039; details: displacement of AV039; read-out: pKi rA3R (converted)
T1 construct: expressed in transfected cells; host or cells: Flp-In-CHO (ThermoFisher R75807), pcDNA5/FRT
T1 sequence (P28647 1-320): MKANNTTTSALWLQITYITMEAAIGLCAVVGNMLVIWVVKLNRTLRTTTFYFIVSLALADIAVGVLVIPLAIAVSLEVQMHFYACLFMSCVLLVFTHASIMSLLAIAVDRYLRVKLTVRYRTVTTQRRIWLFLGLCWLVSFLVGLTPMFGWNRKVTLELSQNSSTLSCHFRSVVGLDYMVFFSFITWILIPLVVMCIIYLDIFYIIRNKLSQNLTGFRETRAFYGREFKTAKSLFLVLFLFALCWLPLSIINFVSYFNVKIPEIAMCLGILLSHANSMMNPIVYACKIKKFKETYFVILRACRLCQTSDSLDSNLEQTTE
Method: Here data was fitted with the ‘two-site Ki model’, build into Prism to determine high affinity and low affinity values for the unlabelled agonists. […] BRET was measured following the addition of the Nluc substrate, Furimazine (0.1 μM).

hA1R:Gi1 = molecular target: T2, hA1R:Gi1 (Homo sapiens, UniProt P30542); assay: cAMP inhibition in PTX-treated CHO-K1-hA1R cells with PTX-insensitive Gi1; format: cell-based
T2 construct: host or cells: CHO-K1-hA1R (made in-house), PTX-treated
T2 sequence (P30542 whole entry): as the sequence (P30542 whole entry) above
Method: as §1

WT hA1R = molecular target: T3, WT hA1R (Homo sapiens, UniProt P30542); assay: cAMP inhibition, Flp-In-CHO wild-type hA1R; format: cell-based; details: Fig4j
T3 construct: expressed in transfected cells
T3 sequence (P30542 whole entry): as the sequence (P30542 whole entry) above
Text: (§2) Cell lines were maintained using standard subculturing routines as guided by the European Collection of Cell Culture (ECACC) and checked annually for mycoplasma infection using an EZ-PCR mycoplasma test kit from Biological Industries (Kibbutz Beit-Haemek, Israel). To investigate the signalling properties of the rat A3R (rA3R) and mutants of the human A1R (hA1R), stable cell lines were generated using Flp-In-CHO cells (ThermoFisher - R75807). Untagged hA1R from sigNanoLuciferase (Nluc)-A1R in pcDNA3.1+ and untagged rA3R from sigNluc-A3R in pcDNA3.1 + (both gifted by Dr Steve Briddon (University of Nottingham)) were cloned into the pcDNA5/FRT expression vector (Thermo Fisher Scientific). Mutations within the hA1R were made using the QuikChange Lightening Site-Directed Mutagenesis Kit (Agilent Technologies) in accordance with the manufacturer’s instructions. Constructs for generating Goa/b interfering and scrambled peptides were generated by PCR and cloned into the BamHI/HindIII site of pcDNA3.1- as described in Gilchrist et al.[60],. Prior to the initiator codon a Kozak sequence was included for enhanced translation. The peptide sequences used were: for Goa […], for Gob […], and for the scrambled peptide […] was used. Constructs were sequenced to confirm fidelity. […]

[4] = molecular target: T4, hA1R R291^7.56 alanine mutant (Homo sapiens, UniProt P30542, R291A); assay: cAMP inhibition, Flp-In-CHO hA1R R291A; format: cell-based; details: Fig4j
T4 construct: expressed in transfected cells
T4 sequence (P30542 whole entry R291A): as the sequence (P30542 whole entry) above, with R291A counted along it
Text: as §2

[5] = molecular target: T5, hA1R I292^8.47 alanine mutant (Homo sapiens, UniProt P30542, I292A); assay: cAMP inhibition, Flp-In-CHO hA1R I292A; format: cell-based; details: Fig4j; read-out: cAMP inhibition potency, 292A, Average (converted)
T5 construct: expressed in transfected cells
T5 sequence (P30542 whole entry I292A): as the sequence (P30542 whole entry) above, with I292A counted along it
Text: as §2

[6] = molecular target: T6, hA1R K294^8.49 alanine mutant (Homo sapiens, UniProt P30542, K294A); assay: cAMP inhibition, Flp-In-CHO hA1R K294A; format: cell-based; details: Fig4j; read-out: cAMP inhibition potency, 294A, Average (converted)
T6 construct: expressed in transfected cells
T6 sequence (P30542 whole entry K294A): as the sequence (P30542 whole entry) above, with K294A counted along it
Text: as §2

[7] = Fig6g, average, n 4, CPA alone or CPA + BnOCPA
[8] = Fig6g, individual animal, CPA alone or CPA + BnOCPA

SMILES: OC[C@H]1O[C@@H](n2cnc3c(NC4CCCC4)ncnc32)[C@H](O)[C@@H]1O [CPA, N^6-Cyclopentyladenosine]
Emax (hA1R:Gi2): -32.2% | β-arrestin1 recruitment at the A1R [1]: no β-arrestin recruitment | β-arrestin2 recruitment at the A1R [2]: no β-arrestin recruitment | reduction of heart rate (frog heart): 6.1 ± 0.1 BPM | reduction of HR ([3]; CPA 6 µg kg^−1 IV): ~ 50% | MAP after injection ([3]; CPA 6 µg kg^−1 IV, from 83 ± 8 mm Hg): 51 ± 5 mm Hg | HR after injection ([3]; CPA 6 µg kg^−1 IV, from 408 ± 17 BPM): 207 ± 29 BPM | effect on HR (difference from previous baseline) ([3]; CPA 6 µg kg^−1 alone): 179 ± 15 bpm | heart rate ([3]; Fig5c, individual rat): 165 and 289 and 168 and 205 | heart rate, Average ([3]; Fig5c, n 4): 207 | HR, Average [3, 7]: -179 | MAP, Average [3, 7]: -55 | HR [3, 8]: -182.8 and -157 and -220 and -158 | MAP [3, 8]: -64 and -74 and -31 and -50 | mean arterial blood pressure ([3]; Fig5d, individual rat): 49 and 64 and 40 | mean arterial blood pressure, Average ([3]; Fig5d, n 4): 51

Ki (rA3R): 676 nM | Emax (hA1R:Gi1; inhibition of forskolin-stimulated cAMP): -37.1% | EC50 (hA1R:Gi1; read-out: pEC50 Gi1 (converted)): 8.91 nM | IC50 (WT hA1R; individual replicate, read-out: cAMP inhibition potency, WT (converted)): 0.971 nM and 1.09 nM and 1.91 nM and 1.17 nM | IC50 (WT hA1R; read-out: cAMP inhibition potency, WT, Average (converted)): 1.23 nM | IC50 ([4]; individual replicate, read-out: cAMP inhibition potency, 291A (converted)): 1.66 nM and 3.36 nM and 11.1 nM and 7.67 nM and 1.61 nM and 5.5 nM and 3.5 nM | IC50 ([4]; read-out: cAMP inhibition potency, 291A, Average (converted)): 3.98 nM | IC50 [5]: 4.79 nM | IC50 [6]: 4.57 nM
SMILES: OC[C@H]1O[C@@H](n2cnc3c(N[C@@H]4CCC[C@H]4O)ncnc32)[C@H](O)[C@@H]1O [HOCPA, (2 R,3 R,4 S,5 R)−2-(6-{[(1 R,2 R)−2-hydroxycyclopentyl]amino}−9H-purin-9-yl)−5-(hydroxymethyl)oxolane-3,4-diol]

From article PMC9293909 (Nature Communications, 2022)
